# Measurements taken from patent US9975874B2, “Factor XIa inhibitors” (Merck Sharp & Dohme Corp., priority 2014, dated 2018).
# Key:
# [1] = molecular target: purified human Factor XIa (Homo sapiens (Human), UniProt P03951); assay: Factor XIa Assay; type: biochemical; settings: substrate Z-Gly-Pro-Arg-AFC 100 μM, 40 pM enzyme, pH 7.4; read-out: FXIa IC50
# Procedure: The effectiveness of a compound of the present invention as an inhibitor of Coagulation Factor XIa can be determined using a relevant purified serine protease, and an appropriate synthetic substrate. The rate of hydrolysis of the chromogenic or fluorogenic substrate by the relevant serine protease was measured both in the absence and presence of compounds of the present invention. Assays were conducted at room temperature or at 37° C. […] A decrease in the rate of fluorescence change in the presence of inhibitor is indicative of enzyme inhibition. Such methods are known to one skilled in the art. […]
# Factor XIa determinations were made in 50 mM HEPES buffer at pH 7.4 containing 150 mM NaCl, 5 mM CaCl2, and 0.1% PEG 8000 (polyethylene glycol; JT Baker or Fisher Scientific). Determinations were made using purified human Factor XIa at a final concentration of 40 pM (Sekisui Diagnostics) and the synthetic substrate, Z-Gly-Pro-Arg-AFC, TFA salt (Sigma #C0980) at a concentration of 100 μM.
# Times required to achieve equilibration between enzyme and inhibitor were determined in control experiments. Initial velocities of product formation in the absence (Vo) or presence of inhibitor (Vi) were measured. Assuming competitive inhibition, and that unity is negligible compared Km/[S], [I]/e, and [I]/e (where [S], [I], and e respectively represent the total concentrations, of substrate, inhibitor and enzyme), the equilibrium constant (Ki) for dissociation of the inhibitor from the enzyme can be obtained from the dependence of Vo/Vi on [I] shown in the following equation.
# [2] = molecular target: purified Human plasma kallikrein (Homo sapiens (Human), UniProt P03952); assay: Kallikrein Assay; type: biochemical; settings: Plasma kallikrein; substrate Acetyl-K-P-R-AFC, 0.5 nM enzyme, pH 7.4; read-out: PK IC50
# Chain of purified Human plasma kallikrein (P03952 391-638): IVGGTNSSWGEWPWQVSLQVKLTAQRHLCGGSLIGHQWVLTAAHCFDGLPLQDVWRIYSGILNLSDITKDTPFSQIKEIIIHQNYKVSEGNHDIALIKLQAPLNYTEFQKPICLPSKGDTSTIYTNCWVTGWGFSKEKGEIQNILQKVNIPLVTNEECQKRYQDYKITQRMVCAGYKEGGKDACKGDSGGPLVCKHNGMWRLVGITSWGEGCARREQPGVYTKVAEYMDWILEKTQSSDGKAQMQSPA
# Chain of purified Human plasma kallikrein (P03952 20-390 partner): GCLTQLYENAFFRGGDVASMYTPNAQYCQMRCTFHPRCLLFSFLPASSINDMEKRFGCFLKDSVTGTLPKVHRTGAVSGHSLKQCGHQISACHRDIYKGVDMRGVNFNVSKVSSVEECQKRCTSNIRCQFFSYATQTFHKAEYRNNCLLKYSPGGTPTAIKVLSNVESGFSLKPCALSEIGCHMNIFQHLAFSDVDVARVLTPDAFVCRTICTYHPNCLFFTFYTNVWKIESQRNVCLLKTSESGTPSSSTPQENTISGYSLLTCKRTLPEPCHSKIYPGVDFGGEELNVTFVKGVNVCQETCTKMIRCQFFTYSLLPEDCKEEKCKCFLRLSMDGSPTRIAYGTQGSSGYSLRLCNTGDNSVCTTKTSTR
# Procedure: The effectiveness of a compound of the present invention as an inhibitor of Kallikrein can be determined using a relevant purified serine protease, and an appropriate synthetic substrate. The rate of hydrolysis of the chromogenic or fluorogenic substrate by the relevant serine protease was measured both in the absence and presence of compounds of the present invention. Assays were conducted at room temperature or at 37° C. […] A decrease in the rate of fluorescence change in the presence of inhibitor is indicative of enzyme inhibition. Such methods are known to one skilled in the art. The results of this assay are expressed as the inhibitory constant, Ki.
# Kallikrein determinations were made in 50 mM HEPES buffer at pH 7.4 containing 150 mM NaCl, 5 mM CaCl2, and 0.1% PEG 8000 (polyethylene glycol; Fisher Scientific). Determinations were made using purified Human plasma kallikrein at a final concentration of 0.5 nM (Enzyme Research Laboratories) and the synthetic substrate, Acetyl-K-P-R-AFC (Sigma # C6608) at a concentration of […].
# Times required to achieve equilibration between enzyme and inhibitor were determined in control experiments. The reactions were performed under linear progress curve conditions and fluorescence increase measured at 405 Ex/510 Em nm. […] IC50 was determined by inflection point from a four parameter logistic curve fit. Ki was calculated using the Cheng Prusoff equation, Ki=IC50/(1+([S]/Km)).
# Chain of purified human Factor XIa (P03951 388-625): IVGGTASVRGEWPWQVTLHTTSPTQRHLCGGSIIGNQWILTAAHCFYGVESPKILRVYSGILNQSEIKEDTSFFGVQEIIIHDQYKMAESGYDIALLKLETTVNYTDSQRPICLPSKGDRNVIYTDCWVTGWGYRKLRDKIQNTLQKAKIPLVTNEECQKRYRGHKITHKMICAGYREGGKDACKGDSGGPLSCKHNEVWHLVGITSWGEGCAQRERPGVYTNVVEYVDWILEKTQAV
# Chain of purified human Factor XIa (P03951 19-387 partner): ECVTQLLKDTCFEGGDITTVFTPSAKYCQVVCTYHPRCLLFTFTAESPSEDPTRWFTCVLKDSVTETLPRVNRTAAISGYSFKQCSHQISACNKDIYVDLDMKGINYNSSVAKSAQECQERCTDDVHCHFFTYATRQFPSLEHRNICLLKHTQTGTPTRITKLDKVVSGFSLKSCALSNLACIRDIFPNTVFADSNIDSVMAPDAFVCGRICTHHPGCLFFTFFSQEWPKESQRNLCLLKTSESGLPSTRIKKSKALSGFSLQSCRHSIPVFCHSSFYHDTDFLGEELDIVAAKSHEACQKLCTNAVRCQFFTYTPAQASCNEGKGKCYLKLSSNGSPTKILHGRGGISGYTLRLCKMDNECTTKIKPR
Structure (SMILES),IC50 [1] [nM],IC50 [2] [nM]
"O=C(NC1CCC1)N1CCC(c2cccc([C@H](Cc3ccccc3)c3ccc(-c4cc(Cl)ccc4-n4cnnn4)c[n+]3[O-])c2)CC1 [Example 51, 4-{3-[(1S)-1-{5-[5-chloro-2-(1H-tetrazol-1-yl)phenyl]-1-oxidopyridin-2-yl}-2-phenylethyl]phenyl}-N-cyclobutyl piperidine-1-carboxamide]",13.2,614
"O=C(NCC1CCOC1)N1CCC(c2cccc([C@H](Cc3ccccc3)c3ccc(-c4cc(Cl)ccc4-n4cnnn4)c[n+]3[O-])c2)CC1 (stereo partly drawn) [Example 52, 4-{3-[(1S)-1-{5-[5-chloro-2-(1H-tetrazol-1-yl)phenyl]-1-oxidopyridin-2-yl}-2-phenylethyl]phenyl}-N-(tetrahydrofuran-3-ylmethyl) piperidine-1-carboxamide]",6.48,384
